42 compounds from patent US10508120B2, “TYK2 inhibitors and uses thereof” (Nimbus Lakshmi, Inc., priority 2017, dated 2019) can be followed below.

For assay [1], the target named is human TYK2 (JH2domain-pseudokinase) (Homo sapiens (Human), UniProt P29597). The assay can be described thus: TYK2 JH2 Domain Binding Assay (KINOMEscan). Summed up: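 Kds, run in duplicate, came from Hill fits (slope fixed at −1) of an 11-point 3-fold dilution series starting at 30,000 nM. Bead-retained TYK2 JH2 (aa G556–D888)–NFkB DBD fusion, DNA-tagged and expressed in HEK293 cells, was read by qPCR after 1 h room-temperature binding in 0.9% DMSO.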
Chain of human TYK2 (JH2domain-pseudokinase) (P29597 556-888): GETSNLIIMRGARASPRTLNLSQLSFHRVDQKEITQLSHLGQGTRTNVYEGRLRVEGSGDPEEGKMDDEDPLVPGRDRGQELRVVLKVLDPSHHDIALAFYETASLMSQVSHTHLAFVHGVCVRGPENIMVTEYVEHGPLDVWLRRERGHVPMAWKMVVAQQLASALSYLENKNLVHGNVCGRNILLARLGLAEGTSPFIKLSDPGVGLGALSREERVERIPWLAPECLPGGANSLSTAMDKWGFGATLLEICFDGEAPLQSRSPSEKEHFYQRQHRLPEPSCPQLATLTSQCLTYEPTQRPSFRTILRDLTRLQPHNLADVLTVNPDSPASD

Assay [2] deals with Tyk2 kinase domain (DH1) (Homo sapiens (Human), UniProt P29597). The assay can be described thus: Tyk2 Radioactive Kinase Assay. The conditions noted are these: compound at 10 μM; ATP 10 μM; read-out: Tyk2 JH1% Inhibition @ 10 μM. In kind it is biochemical. In short, it runs like this:
(§1)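 Compounds were tested at a single concentration of 10 μM in a radiometric kinase format against each isolated kinase domain. Activity is reported as percent inhibition at that concentration.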

In assay [3] the target is JAK2 kinase domain (JH1) (Homo sapiens (Human), UniProt O60674). Description: JAK2 Radioactive Kinase Assay. In kind it is biochemical. The note with it: compound at 10 μM; ATP 10 μM; read-out: JAK2 JH1% Inhibition @ 10 μM. Summed up: as §1
Chain of JAK2 kinase domain (JH1) (O60674 849-1124): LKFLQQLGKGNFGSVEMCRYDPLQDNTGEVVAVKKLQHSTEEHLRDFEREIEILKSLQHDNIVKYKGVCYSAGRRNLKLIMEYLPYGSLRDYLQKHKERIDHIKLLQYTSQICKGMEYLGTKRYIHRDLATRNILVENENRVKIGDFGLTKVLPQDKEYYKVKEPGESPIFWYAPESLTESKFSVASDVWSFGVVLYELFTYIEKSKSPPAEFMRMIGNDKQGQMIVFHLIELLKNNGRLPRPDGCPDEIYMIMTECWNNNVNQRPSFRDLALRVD

Chain of Tyk2 kinase domain (DH1) (P29597 897-1176): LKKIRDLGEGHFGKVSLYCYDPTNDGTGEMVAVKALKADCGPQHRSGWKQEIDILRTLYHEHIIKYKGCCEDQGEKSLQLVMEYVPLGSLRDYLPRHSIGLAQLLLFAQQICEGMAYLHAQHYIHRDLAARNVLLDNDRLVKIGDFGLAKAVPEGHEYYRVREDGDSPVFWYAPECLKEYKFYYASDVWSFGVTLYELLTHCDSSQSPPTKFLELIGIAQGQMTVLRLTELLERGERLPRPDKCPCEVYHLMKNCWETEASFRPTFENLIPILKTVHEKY

Usually Kd stands for the equilibrium constant for the complex coming apart. Low readings indicate higher affinity, high ones lower affinity. As a reminder, the inhibition is the percentage by which the read-out fell short of the control. `CNc1cc(Nc2cc(Cl)cnc2OC(C)C)nc2c(C(=O)N[C@H]3C[C@H]3F)cnn12` [I-148] returned a Kd in assay [1] of 0.2 to 1 nM. Further, the inhibition at 10 µM in assay [2] and in assay [3] was below 50% throughout.
For the compound `CNc1cc(Nc2cc(Cl)cnc2OC(C)C)nc2c(C(=O)NC3CCC3)cnn12` [I-149], the Kd in assay [1] was in the range of 1 to 10 nM. Further, the inhibition at 10 µM in assay [2] and in assay [3] was below 50% in each case.
Take `CNc1cc(Nc2cc(Cl)cnc2OC(C)C)nc2c(C(=O)NC3CC3)cnn12` [I-150]: the Kd in assay [1] was in the range of 0.2 to 1 nM. Also, the inhibition at 10 µM in assay [2] and in assay [3] was below 50% each time.
`CNc1cc(Nc2cccnc2OC(F)F)nc2c(C(N)=O)cnn12` [I-152]: the Kd in assay [1] fell in the range of 0.2 to 1 nM. For the same compound, the inhibition at 10 µM in assay [2] and in assay [3] was below 50% each time.
`CNc1cc(Nc2cccn(-c3cccc(C(C)(C)O)n3)c2=O)nc2c(C(=O)NC3CC3)cnn12` [I-155] displayed a Kd in assay [1] below 0.2 nM. The inhibition at 10 µM in assay [2] and in assay [3] was below 50% each time.
Turning to `CNc1cc(Nc2cccn(-c3nccs3)c2=O)nc2c(C(=O)NC3CC3)cnn12` [I-157], the Kd in assay [1] was below 0.2 nM. Further, the inhibition at 10 µM in assay [2] and in assay [3] was below 50% throughout.
With `CNc1cc(Nc2cc(C)cn(-c3cnn(C4CC4)c3C)c2=O)nc2c(C(=O)NC3CCC3)cnn12` [I-159], the Kd in assay [1] lay in the range of 0.2 to 1 nM. For the same compound, the inhibition at 10 µM in assay [2] and in assay [3] was below 50% throughout.
In turn, `CNc1cc(Nc2cccn([C@H]3CC[C@H](O)CC3)c2=O)nc2c(C(=O)N[C@H]3C[C@H]3F)cnn12` [I-166] returned a Kd in assay [1] below 0.2 nM. In addition, the inhibition at 10 µM in assay [2] and in assay [3] was below 50% throughout.
Turning to `CNc1cc(Nc2cccn([C@H]3CC[C@H](O)CC3)c2=O)nc2c(C(=O)NC3CC3)cnn12` [I-167], the Kd in assay [1] was below 0.2 nM. The inhibition at 10 µM in assay [2] and in assay [3] was below 50% throughout.
Consider `CNc1cc(Nc2cccnc2OC2CCC2)nc2c(C(=O)NC3CCC3)cnn12` [I-168], for which, in assay [1], the Kd was in the range of 0.2 to 1 nM. Further, the inhibition at 10 µM in assay [2] and in assay [3] was below 50% throughout.
In assay [1], `CNc1cc(Nc2cccnc2OC2CCC2)nc2c(C(=O)NC3CC3)cnn12` [I-169] came in with a Kd of 0.2 to 1 nM. Also, the inhibition at 10 µM in assay [2] and in assay [3] was below 50% in each case.
On to `CNc1cc(Nc2cccnc2O[C@@H]2CCOC2)nc2c(C(=O)NC3CCC3)cnn12` [I-171], for which the Kd in assay [1] was 0.2 to 1 nM. The inhibition at 10 µM in assay [2] and in assay [3] was below 50% throughout.
As to `CNc1cc(Nc2cccnc2O[C@@H]2CCOC2)nc2c(C(=O)NC3CC3)cnn12` [I-172], the Kd in assay [1] lay within 0.2 to 1 nM. Besides, the inhibition at 10 µM in assay [2] and in assay [3] was below 50% each time.
Take `CNc1cc(Nc2cccnc2OC2CCOCC2)nc2c(C(=O)NC3CC3)cnn12` [I-173]: the Kd in assay [1] was 0.2 to 1 nM. Besides, the inhibition at 10 µM in assay [2] and in assay [3] was below 50% each time.
For `CNc1cc(Nc2cccnc2OC2CCOCC2)nc2c(C(=O)N[C@H]3C[C@H]3F)cnn12` [I-174], the Kd in assay [1] is below 0.2 nM. For the same compound, the inhibition at 10 µM in assay [2] and in assay [3] was below 50% in each case.
Take `CNc1cc(Nc2cc(Cl)cn(-c3cn(C4CC4)nc3C)c2=O)nc2c(C(N)=O)cnn12` [I-178]: the Kd in assay [1] lay in the range of 0.2 to 1 nM. For the same compound, the inhibition at 10 µM in assay [2] and in assay [3] was below 50% throughout.
`CNc1cc(Nc2cc(Cl)cn(-c3cn(C4CC4)nc3C)c2=O)nc2c(C(=O)NC3CCC3)cnn12` [I-179] showed a Kd in assay [1] of 0.2 to 1 nM. Moreover, the inhibition at 10 µM in assay [2] and in assay [3] was below 50% throughout.
For the compound `CNc1cc(Nc2cc(Cl)cn(-c3cnn(C4CC4)c3C)c2=O)nc2c(C(N)=O)cnn12` [I-180], in assay [1], the Kd is below 0.2 nM. Further, the inhibition at 10 µM in assay [2] and in assay [3] was below 50% in each case.
Take `CNc1cc(Nc2cc(Cl)cn(-c3cnn(C4CC4)c3C)c2=O)nc2c(C(=O)NC3CCC3)cnn12` [I-181]: in assay [1], the Kd was 0.2 to 1 nM. Moreover, the inhibition at 10 µM in assay [2] and in assay [3] was below 50% in each case.
Consider `CNc1cc(Nc2cccnc2O[C@H]2C[C@@H](OC)C2)nc2c(C(=O)NC3CCC3)cnn12` [I-183], for which, in assay [1], the Kd is below 0.2 nM. In addition, the inhibition at 10 µM in assay [2] and in assay [3] was below 50% each time.
Take `CNc1cc(Nc2cccnc2O[C@H]2C[C@@H](OC)C2)nc2c(C(=O)NC3CC3)cnn12` [I-184]: the Kd in assay [1] was in the range of 0.2 to 1 nM. Besides, the inhibition at 10 µM in assay [2] and in assay [3] was below 50% each time.
As to `CNc1cc(Nc2cccnc2OC2CCOCC2)nc2c(C(=O)NC3CCC3)cnn12` [I-185], the Kd in assay [1] was 0.2 to 1 nM. Also, the inhibition at 10 µM in assay [2] and in assay [3] was below 50% throughout.
`CNc1cc(Nc2cccnc2O[C@H]2C[C@@H](OC)C2)nc2c(C(=O)N[C@H]3C[C@H]3F)cnn12` [I-186] had a Kd in assay [1] below 0.2 nM. Also, the inhibition at 10 µM in assay [2] and in assay [3] was below 50% throughout.
In assay [1], `CNc1cc(Nc2cccnc2O[C@H]2C[C@H](OC)C2)nc2c(C(=O)NC3CCC3)cnn12` [I-187] returned a Kd below 0.2 nM. The inhibition at 10 µM in assay [2] and in assay [3] was below 50% throughout.
In turn, `CNc1cc(Nc2cccnc2O[C@H]2C[C@H](OC)C2)nc2c(C(=O)NC3CC3)cnn12` [I-188] showed a Kd in assay [1] below 0.2 nM. In addition, the inhibition at 10 µM in assay [2] and in assay [3] was below 50% in each case.
Turning to `CNc1cc(Nc2cccnc2O[C@H]2C[C@H](OC)C2)nc2c(C(=O)N[C@H]3C[C@H]3F)cnn12` [I-189], the equilibrium dissociation constant (Kd) in assay [1] was below 0.2 nM. Also, the inhibition at 10 µM in assay [2] and in assay [3] was below 50% throughout.
`CNc1cc(Nc2cccn(C3CCN(CC(F)F)CC3)c2=O)nc2c(C(=O)NC3CC3)cnn12` [I-191] yielded a Kd in assay [1] below 0.2 nM. The inhibition at 10 µM in assay [2] and in assay [3] was below 50% each time.
Compound `CNc1cc(Nc2cccn([C@@H]3CCOC3)c2=O)nc2c(C(N)=O)cnn12` [I-195] came in with a Kd in assay [1] of 0.2 to 1 nM. Further, the inhibition at 10 µM in assay [2] and in assay [3] was below 50% in each case.
Take `CNc1cc(Nc2cccn([C@H]3CCOC3)c2=O)nc2c(C(N)=O)cnn12` [I-196]: the Kd in assay [1] lay in the range of 0.2 to 1 nM. Further, the inhibition at 10 µM in assay [2] and in assay [3] was below 50% in each case.
Regarding `CNc1cc(-c2c[nH]c3c(C4CCOCC4)cc(Cl)cc23)nc2c(C(=O)NC3CC3)cnn12` [I-197], the Kd in assay [1] was 0.2 to 1 nM. Moreover, the inhibition at 10 µM in assay [2] and in assay [3] was below 50% throughout.
`CNc1cc(Nc2cccnc2OC(CO)CO)nc2c(C(=O)NC3CC3)cnn12` [I-199] yielded a Kd in assay [1] of 0.2 to 1 nM. Besides, the inhibition at 10 µM in assay [2] and in assay [3] was below 50% throughout.
`CNc1cc(Nc2cccnc2OC(CO)CO)nc2c(C(=O)N[C@H]3C[C@H]3F)cnn12` [I-200] showed a Kd in assay [1] of 0.2 to 1 nM. Further, the inhibition at 10 µM in assay [2] and in assay [3] was below 50% throughout.
In assay [1], `CNc1cc(Nc2cccnc2OC(CO)CO)nc2c(C(=O)NC3CCC3)cnn12` [I-201] came in with a Kd below 0.2 nM. Besides, the inhibition at 10 µM in assay [2] and in assay [3] was below 50% in each case.
In turn, `CNc1cc(Nc2cccn([C@@H]3CCOC3)c2=O)nc2c(C(=O)NC3CC3)cnn12` [I-202] came in with a Kd in assay [1] of 0.2 to 1 nM. Besides, the inhibition at 10 µM in assay [2] and in assay [3] was below 50% throughout.
In turn, `CNc1cc(Nc2cccn([C@H]3CCOC3)c2=O)nc2c(C(=O)NC3CC3)cnn12` [I-203] displayed a Kd in assay [1] below 0.2 nM. Moreover, the inhibition at 10 µM in assay [2] and in assay [3] was below 50% in each case.
In the case of `CNc1cc(Nc2cccn([C@@H]3CCOC3)c2=O)nc2c(C(=O)NC3CCC3)cnn12` [I-204], the Kd in assay [1] is 0.2 to 1 nM. Besides, the inhibition at 10 µM in assay [2] and in assay [3] was below 50% in each case.
For `CNc1cc(Nc2cccn([C@H]3CCOC3)c2=O)nc2c(C(=O)NC3CCC3)cnn12` [I-205], the Kd in assay [1] is below 0.2 nM. In addition, the inhibition at 10 µM in assay [2] and in assay [3] was below 50% each time.
The compound `Cc1c(Nc2cccnc2OC(C)C)nc2c(C(=O)NC3CC3)cnn2c1N` [I-207, 7-amino-N-cyclopropyl-5-((2-isopropoxypyridin-3-yl)amino)-6-methylpyrazolo[1,5-a]pyrimidine-3-carboxamide] displayed a Kd in assay [1] of 1 to 10 nM. Moreover, the inhibition at 10 µM in assay [2] and in assay [3] was below 50% in each case.
In turn, `Cc1c(Nc2cccnc2OC(C)C)nc2c(C(=O)NC3CCC3)cnn2c1N` [I-208, 7-amino-N-cyclobutyl-5-((2-isopropoxypyridin-3-yl)amino)-6-methyl pyrazolo[1,5-a]pyrimidine-3-carboxamide] yielded a Kd in assay [1] of 1 to 10 nM. Besides, the inhibition at 10 µM in assay [2] and in assay [3] was below 50% each time.
The compound `CNc1cc(Nc2cc(F)cnc2OC(C)C)nc2c(C(=O)NC3CC3)cnn12` [I-209] had a Kd in assay [1] of 0.2 to 1 nM. Moreover, the inhibition at 10 µM in assay [2] and in assay [3] was below 50% in each case.
In turn, `CNc1cc(Nc2cc(F)cnc2OC(C)C)nc2c(C(=O)NC3CCC3)cnn12` [I-210] had a dissociation constant (Kd) in assay [1] of 0.2 to 1 nM. The inhibition at 10 µM in assay [2] and in assay [3] was below 50% each time.
In assay [1], `CNc1cc(Nc2cc(C)cnc2OC(C)C)nc2c(C(=O)NC3CC3)cnn12` [I-212] yielded a Kd of 0.2 to 1 nM. Moreover, the inhibition at 10 µM in assay [2] and in assay [3] was below 50% throughout.
